In patent US7582778B2, “Podophyllotoxin” (Universitatsklinikum Charite der Humboldt-Universitat zu, priority 2001, dated 2009):
Like-named read-outs stand apart in the source and are kept apart here.

Key:
[1] = tested on: multidrug resistant MOVP-3 cells; assay: XTT cytotoxicity assay, multidrug resistant MOVP-3 subline; type: cell-based, human; conditions: for cross resistance of MOVP-3 cells: from IC50 values MOVP-3 vs Molt-3; for IC50: MOVP-3 cells
Protocol: MDR-1 gene expression was determined by RT-PCR analysis on total RNA isolated from MOVP-3 and Molt-3 cells, respectively (6A). Expression of GAPDH was used as a control for the integrity of the cDNA. […] (6C) Cross-resistance of MOVP-3 cells against MDR-1 drugs (doxorubicin, melphalan, vinblastine and paclitaxel) was calculated from IC50 values (n=3) as described in 6B).
Cells: Tumor cell lines were grown in RPMI, 10% FCS (Nalm-6, Reh, Molt-3, Jurkat, HL-60, K562, HeLa, CEM, A2780, SW480) or DMEM, 10% FCS (NXS2, SK-N-SH, HT-29) in the presence of 100 IU/ml penicillin/streptomycin (P/S) and propagated under standard tissue culture conditions (5% CO2, 37° C.). All cell lines were obtained from ATCC, Rockville, Md. except NXS2 which was previously described (Lode H N, Xiang R, Varki N M, Dolman C S, Gillies S D, Reisfeld R A. Targeted interleukin-2 therapy for spontaneous neuroblastoma metastases to bone marrow. Journal of the National Cancer Institute. 1997; 89:1586-1594.) and VCR100, ADR5000 and A2780 which were kindly provided by James Beck, Greifswald, Germany (Beck J, Handgretinger R, Dopfer R, Klingebiel T, Niethammer D, Gekeler V. Expression of mdrl, mrp, topoisomerase II alpha/beta, and cyclin A in primary or relapsed states of acute lymphoblastic leukaemias. Br J Haematol. 1995; 89:356-363; Beck J F, Bohnet B, Brugger D, et al. Expression analysis of protein kinase C isozymes and multidrug resistance associated genes in ovarian cancer cells. Anticancer Res. 1998; 18:701-705.).

Molt-3/MDR-1 cells = conditions: stable transfection with pMDR-IRESpuro
Protocol: Stable transfection of MDR-1: The MDR-1 cDNA was kindly provided in a pUC based plasmid by C. Baum, University of Hamburg. For mammalian expression, the MDR-1 cDNA was cloned into the bicistronic eukaryotic expression plasmid pIRESpuro using NotI and BamHI restriction sites. pMDR-IRESpuro was transfected into Molt-3 cells by electroporation (960 μF, 250V). Stable transfectants were selected with 300 ng/ml puromycin.
OD values were plotted as a function of drug concentration and the curves were integrated using the softmax software to obtain the IC50 concentration values.

Molt-3 parental cells = assay: Cell cycle analysis (propidium iodide, FACS), Molt-3; type: cell-based, human; conditions: Molt-3 cells, 0.5 μM, up to 72 h
Protocol: (§1) Cells were harvested at indicated time points (n=3), fixed, stained with propidium iodide and analyzed by FACS as described in Materials and Methods. Per cent cells in pre G1 (apoptosic cells) were calculated from DNA histograms.
(§2) Cell cycle analysis: Distinct phases of the cell cycle were determined in a standard assay using propidium iodide. […] At indicated time points, cells were harvested and fixed in 4.5 ml ethanol (75%, −20° C.) for at least 12 h (4° C.). Cells were washed in PBS (pH 7.4) and resuspended in 250 μl PBS containing RNAse (0.3 mg/ml) and propidium iodide (50 μg/ml) and incubated in the dark (30 min, RT). The DNA histograms defining distinct phases of the cell cycle were subsequently determined in duplicates by FACS analysis and average results were expressed as per cent.

MDR-1 p-glycoprotein = MDR-1 p-glycoprotein (Homo sapiens, UniProt P08183); conditions: MOVP-3 cells; for effect on the decrease in FL-1 signal (JC-1 efflux): coincubation with 3×10^−4 M
Protocol: Samples incubated with 2 μM cyclosporin A were used as positive controls (data not shown). Cell fluorescence was recorded using a FAC Sort flow cytometer (Becton Dickinson) and JC-1 signals were detected on the FL1-channel (530 nm filter) for analysis of the dye monomer.

MOVP-3 primary tumors = assay: Anti-tumor effect in a multidrug resistant T-cell leukemia xenograft model; type: in vivo, SCID mice; conditions: for anti-tumor response / transient average weight loss: 15 mg/kg i.p.
Protocol: The anti-tumor effect of ProVP-16 II therapy was determined in a multidrug resistant xenograft model (B,C). SCID mice (n=7) were injected s.c. with 5×10^6 MOVP-3 cells and primary tumors of 250 mm^3 average size were established 55 days after inoculation. […] Tumor growth was monitored by microcaliper measurements and tumor size was calculated as described in Materials and Methods (B). […] The body weight of treated animals was determined over time and calculated as per cent of body weight on day 57 (C).
Anti-tumor effect in a T-cell leukemia xenograft model: Primary tumors were induced by injection of 5×10^6 MOVP 3 cells in 100 μl PBS (pH 7.4) into the skin of the left lateral flank of each SCID mouse. Established primary tumors were palpable 55 days after injection. […] Each mouse received a total of 7 injections on days 55,57,59,69,71,87,90 after tumor cell inoculation. Primary tumor size was determined over time by micro caliper measurements and volumes were calculated according to ½×with^2×length. Body weight was determined on a standard digital scale.

[2] = for maximum tolerated dose: defined by a decrease in body weight <20%
Protocol: The body weight was determined for each animal over time and calculated as per cent of total weight observed on day 0. An event as indicated by Kaplan Maier plots is defined by loss of body weight greater than 20%.
Body weights and survival were monitored over time.

MOVP-3 cells = assay: Cell cycle analysis (propidium iodide, FACS), MOVP-3; type: cell-based, human; conditions: 0.5 μM, up to 72 h
Protocol: as §1, §2

Molt-3 T-cell leukemia = assay: XTT cytotoxicity assay, Molt-3; conditions: for cytotoxic effects at early incubation: Molt-3, up to 12 h of incubation
Protocol: (§3) The cytotoxic effect of ProVP-16 I and II was evaluated against a panel of cell lines by triplicate determinations of IC50 concentrations for both prodrugs against each cell line (A). […] Bars represent mean values ±SD.
At the time points indicated, cell viability was determined in triplicate by the XTT assay as described in Materials and Methods. […] Results were plotted as a semilogarithmic function of drug concentration.

[3] = human serum, pH 7.3, 37° C.
[4] = tested on: CHO Chinese hamster ovary; assay: XTT cytotoxicity assay, CHO; type: cell-based
Protocol: (§4) Cytotoxicity assay: Cytotoxicity was determined by the XTT tetrazolium/formazan assay as previously described (Scudiero D A, Shoemaker R H, Paull K D, et al. Evaluation of a soluble tetrazolium/formazan assay for cell growth and drug sensitivity in culture using human and other tumor cell lines. Cancer Res. 1988; 48:4827-4833.). Briefly, cells were seeded in 96 flat bottom well plates at a density of 10^4/well in 100 μl media and exposed to drug concentrations ranging from 10^−4 to 10^−12 M. At the indicated time points (6-72 hr), cell viability was assessed by adding 50 μl XTT-reagent (1 mg/ml in serum free RPMI) activated with 0.2% v/v PMS (1.53 mg/ml in PBS) incubated at 37° C. for 4 h. Plates were analyzed in a Thermomax (Molecular Devices) micro plate reader at 450 nm. OD values were plotted as a function of drug concentration and the curves were integrated using the softmax software to obtain the IC50 concentration values.

[5] = for kobs: PBS buffer
Protocol: ProVP-16 I was incubated in THF/2% HCl and samples were periodically analyzed by HPLC at the indicated time points (A). Hydrolytic activation of ProVP-16 II was determined in phosphate buffered saline (PBS) a t the pH levels indicated (B). ProVP-16 I (3 mM) was incubated in PBS solutions and samples were periodically analyzed by HPLC. The percent conversion was calculated from areas under the curve determined by peak integration.

[6] = tested on: Hamms human colon carcinoma cells; assay: XTT cytotoxicity assay, Hamms; type: cell-based
Protocol: as §4

[7] = tested on: porcine liver carboxyl ester hydrolase
SW480 colon carcinoma = conditions: SW480, vs VP-16
Protocol: as §3

[8] = Conversion of ProVP-16 I to ProVP-16 II under acid conditions (HPLC); type: physicochemical; conditions: acid conditions (THF, 2N HCL)
Protocol: ProVP-16 I was incubated in THF/2% HCl and samples were periodically analyzed by HPLC at the indicated time points (A). […] ProVP-16 I (3 mM) was incubated in PBS solutions and samples were periodically analyzed by HPLC. The percent conversion was calculated from areas under the curve determined by peak integration.

[9] = tested on: NXS2 murine neuroblastoma; assay: XTT cytotoxicity assay, NXS2; type: cell-based
Protocol: as §3

Water solubility = type: physicochemical; conditions: compared with ProVP-16 I
[10] = Molt-3, time course, 48-72 h after incubation
[11] = Molt-3 cells, resistance experiment (FIG. 4B)
[12] = porcine liver carboxyl ester hydrolase, pH 7.3, 37° C.

Chain of MDR-1 p-glycoprotein (P08183 whole entry): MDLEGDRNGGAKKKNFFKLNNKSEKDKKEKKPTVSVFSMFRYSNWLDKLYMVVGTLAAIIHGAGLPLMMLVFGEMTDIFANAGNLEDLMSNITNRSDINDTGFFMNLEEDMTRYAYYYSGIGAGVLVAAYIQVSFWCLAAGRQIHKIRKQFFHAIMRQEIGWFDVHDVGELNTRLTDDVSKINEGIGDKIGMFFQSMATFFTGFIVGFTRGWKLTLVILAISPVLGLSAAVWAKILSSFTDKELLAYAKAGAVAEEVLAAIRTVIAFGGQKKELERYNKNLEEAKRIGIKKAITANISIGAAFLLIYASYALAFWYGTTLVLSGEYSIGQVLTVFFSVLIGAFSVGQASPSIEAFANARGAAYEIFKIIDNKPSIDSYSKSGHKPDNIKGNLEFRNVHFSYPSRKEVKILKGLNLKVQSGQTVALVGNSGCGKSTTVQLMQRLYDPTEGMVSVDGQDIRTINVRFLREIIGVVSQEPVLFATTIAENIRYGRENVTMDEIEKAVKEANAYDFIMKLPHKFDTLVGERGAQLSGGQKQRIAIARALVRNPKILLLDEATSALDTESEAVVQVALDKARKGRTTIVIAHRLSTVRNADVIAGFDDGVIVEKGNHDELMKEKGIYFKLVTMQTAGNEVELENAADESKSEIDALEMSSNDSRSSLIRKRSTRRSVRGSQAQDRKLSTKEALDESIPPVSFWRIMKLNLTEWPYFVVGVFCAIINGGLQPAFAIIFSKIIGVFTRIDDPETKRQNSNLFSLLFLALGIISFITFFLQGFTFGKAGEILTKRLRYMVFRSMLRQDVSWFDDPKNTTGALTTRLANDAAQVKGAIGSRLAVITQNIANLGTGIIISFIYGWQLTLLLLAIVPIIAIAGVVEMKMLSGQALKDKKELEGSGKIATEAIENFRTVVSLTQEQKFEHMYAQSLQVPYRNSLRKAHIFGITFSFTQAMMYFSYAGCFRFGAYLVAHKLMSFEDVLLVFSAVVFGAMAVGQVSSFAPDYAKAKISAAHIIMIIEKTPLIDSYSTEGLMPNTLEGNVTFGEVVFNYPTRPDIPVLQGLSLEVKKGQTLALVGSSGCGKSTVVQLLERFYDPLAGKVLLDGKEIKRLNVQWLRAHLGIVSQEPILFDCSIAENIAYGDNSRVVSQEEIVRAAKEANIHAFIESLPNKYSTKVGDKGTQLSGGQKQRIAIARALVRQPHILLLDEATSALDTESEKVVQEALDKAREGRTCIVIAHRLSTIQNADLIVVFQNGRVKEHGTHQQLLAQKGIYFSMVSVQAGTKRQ

CC[C@]1(O)C[C@@H]2CN(CCc3c([nH]c4ccccc34)[C@@](C(=O)OC)(c3cc4c(cc3OC)N(C)[C@H]3[C@@](O)(C(=O)OC)[C@H](OC(C)=O)[C@]5(CC)C=CCN6CC[C@]43[C@@H]65)C2)C1 [vinblastine]
cross resistance of MOVP-3 cells [1]: cross resistance
sensitivity / resistance of Molt-3/MDR-1 cells (Molt-3/MDR-1 cells): resistance

CC(=O)O[C@H]1C(=O)[C@@]2(C)[C@H]([C@H](OC(=O)c3ccccc3)[C@]3(O)C[C@H](OC(=O)[C@H](O)[C@@H](NC(=O)c4ccccc4)c4ccccc4)C(C)=C1C3(C)C)[C@]1(OC(C)=O)CO[C@@H]1C[C@@H]2O [paclitaxel]
cross resistance of MOVP-3 cells [1]: cross resistance
sensitivity / resistance of Molt-3/MDR-1 cells (Molt-3/MDR-1 cells): resistance

COc1cc([C@@H]2c3cc4c(cc3[C@@H](O[C@@H]3O[C@@H]5CO[C@@H](C)O[C@H]5[C@H](O)[C@H]3O)[C@H]3COC(=O)[C@H]23)OCO4)cc(OC)c1O [VP-16, etoposide, reference compound]
induction of apoptosis (pre-G1 peak) (Molt-3 parental cells): induce apoptosis in Molt-3 cells to a similar extent as ProVP-16 I and II
effect on the decrease in FL-1 signal (JC-1 efflux) (MDR-1 p-glycoprotein): ineffective in modulating MDR-1 function
anti-tumor response (MOVP-3 primary tumors): no anti-tumor response
transient average weight loss (MOVP-3 primary tumors): 20%
maximum tolerated dose [2]: 20 mg/kg
mice with a weight loss >20% ([2]; mouse, in vivo): 5/6
IC50 [1]: 2000 nM
resistance in vitro ([1]; MOVP-3 model with stably amplified MDR-1): 100 ×
cross resistance of MOVP-3 cells [1]: cross resistance
sensitivity / resistance of Molt-3/MDR-1 cells (Molt-3/MDR-1 cells): resistance
induction of apoptosis (pre-G1 peak) (MOVP-3 cells): ineffective to induce apoptosis
IC50 (Molt-3 T-cell leukemia; [10]): 65 nM
IC50 (Molt-3 T-cell leukemia; [11]): 20 nM

N[C@@H](Cc1ccc(N(CCCl)CCCl)cc1)C(=O)O [melphalan]
cross resistance of MOVP-3 cells [1]: statistically significant

COc1cc(C2c3cc4c(cc3C(OC3OC5COC(C)OC5C(O)C3O)C3COC(=O)C23)OCO4)cc(OC)c1OC(=O)OCC1COC(C)(C)O1 (centres unmarked) [ProVP-16 I]
induction of apoptosis (pre-G1 peak) (Molt-3 parental cells): Induction of apoptosis was also demonstrated
kobs [3]: 0.923 ± 0.046 10^−3-min^−1
t1/2 [3]: 750.8 min
response to proetoposides compared with etoposide [4]: responded equally well
effect on the decrease in FL-1 signal (JC-1 efflux) (MDR-1 p-glycoprotein): abrogated
lowest concentration inhibiting MDR-1 mediated efflux (MDR-1 p-glycoprotein; data not shown): 10 µM
conversion in PBS ([5]; PBS (pH 7.4, 37° C.)): no measurable conversion
kobs ([5]; pH 5.0-10.0, 37° C.): no conversion
kobs ([5]; pH 11.8, 37° C.): 8.333 ± 0.50 10^−3-min^−1
stability under basic buffer conditions ([5]; basic buffer conditions (pH <10.0)): inert
IC50 [1]: 20 nM
resistance of MOVP-3 cells (IC50 MOVP-3÷IC50 Molt-3) ([1]; MOVP-3 vs Molt-3): no significant difference
sensitivity / resistance of Molt-3/MDR-1 cells (Molt-3/MDR-1 cells): remained fully sensitive
response to proetoposides compared with etoposide [6]: responded equally well
kobs [7, 12]: 48.89 ± 3.62 10^−3-min^−1
t1/2 [7, 12]: 14.2 min
t1/2 ([7]; porcine liver carboxyl ester hydrolase, pH 7.3, 37° C., listed as Prodrug I): 14.17 min
induction of apoptosis (pre-G1 peak) (MOVP-3 cells): very effective in inducing a steady increase in the pre-G1 peak
IC50 (Molt-3 T-cell leukemia; [10]): 10 nM
onset of cytotoxic activity (Molt-3 T-cell leukemia; Molt-3, time of incubation): > 24 h
cytotoxic effects at early incubation (Molt-3 T-cell leukemia): absence of cytotoxic effects
IC50 (Molt-3 T-cell leukemia; [11]): 20 nM
IC50 fold lower than parent compound (SW480 colon carcinoma): 1000 fold
degradation of the glycoside moiety [8]: about 10%
time for conversion to ProVP-16 II [8]: ≤ 2 h
response to proetoposides compared with etoposide [9]: responded equally well

COc1cccc2c1C(=O)c1c(O)c3c(c(O)c1C2=O)C[C@@](O)(C(=O)CO)C[C@@H]3O[C@H]1C[C@H](N)[C@H](O)[C@H](C)O1 [doxorubicin]
cross resistance of MOVP-3 cells [1]: cross resistance
sensitivity / resistance of Molt-3/MDR-1 cells (Molt-3/MDR-1 cells): resistance

COc1cc(C2c3cc4c(cc3C(OC3OC5COC(C)OC5C(O)C3O)C3COC(=O)C23)OCO4)cc(OC)c1OC(=O)OCC(O)CO (centres unmarked) [ProVP-16 II]
induction of apoptosis (pre-G1 peak) (Molt-3 parental cells): Induction of apoptosis was also demonstrated
t1/2 ([3]; listed as ProPV-16 II): 56.1 min
t1/2 ([3]; listed as Prodrug II): 56.07 min
response to proetoposides compared with etoposide [4]: responded equally well
water solubility (Water solubility): higher water solubility
anti-tumor response (MOVP-3 primary tumors): dramatic reduction in primary tumor growth
transient average weight loss (MOVP-3 primary tumors): no measurable weight loss
time the regression was stable (MOVP-3 primary tumors; 45 mg/kg i.p.): over 2 months
transient weight loss (MOVP-3 primary tumors; 45 mg/kg i.p.): 6%
animals with regression of established primary tumors (MOVP-3 primary tumors; 45 mg/kg i.p., 10 days after initiation of treatment): 7/7
kobs ([5]; pH 5.0-7.3, 37° C.): no conversion
kobs ([5]; pH 8.0, 37° C.): 3.201 ± 0.428 10^−3-min^−1
kobs ([5]; pH 8.8, 37° C.): 7.142 ± 0.351 10^−3-min^−1
kobs ([5]; pH 10.5, 37° C.): 100.01 ± 12.72 10^−3-min^−1
conversion rate ([5]; pH 7.4): < 5%
survival / tolerability ([2]; 20 mg/kg i.p.): well tolerated with no death
survival / tolerability ([2]; 60 mg/kg i.p.): well tolerated with no death
maximum tolerated dose [2]: 60 mg/kg
decrease of systemic toxicity by the prodrug design, factor ([2]; mouse, in vivo): ≥ 3
increase in the maximum tolerated dose over the parental compound ([2]; vs VP-16): greater than 3 fold
resistance of MOVP-3 cells (IC50 MOVP-3÷IC50 Molt-3) [1]: no significant difference
IC50 [1]: 20 nM
sensitivity / resistance of Molt-3/MDR-1 cells (Molt-3/MDR-1 cells): remained fully sensitive
response to proetoposides compared with etoposide [6]: responded equally well
kobs ([7]; pH 7.3): 1.348 ± 0.081 10^−3-min^−1
t1/2 [7, 12]: 514.1 min
induction of apoptosis (pre-G1 peak) (MOVP-3 cells): very effective in inducing a steady increase in the pre-G1 peak
cytotoxic effects at early incubation (Molt-3 T-cell leukemia): absence of cytotoxic effects
IC50 (Molt-3 T-cell leukemia; [11]): 20 nM
IC50 fold lower than parent compound (SW480 colon carcinoma): 1000 fold
response to proetoposides compared with etoposide [9]: responded equally well
